# Values of other authors, collected in US20030203043A1 (priority 2002, published 2003).
# Like-named read-outs stand apart in the source and are kept apart here.
# What was measured:
# [1] = supplementation
# [2] = female rats
# aromatase = biological target: T1, aromatase (Homo sapiens, UniProt P11511); conditions: relative to chrysin, AG, ANG
# T1 sequence (P11511 1-503): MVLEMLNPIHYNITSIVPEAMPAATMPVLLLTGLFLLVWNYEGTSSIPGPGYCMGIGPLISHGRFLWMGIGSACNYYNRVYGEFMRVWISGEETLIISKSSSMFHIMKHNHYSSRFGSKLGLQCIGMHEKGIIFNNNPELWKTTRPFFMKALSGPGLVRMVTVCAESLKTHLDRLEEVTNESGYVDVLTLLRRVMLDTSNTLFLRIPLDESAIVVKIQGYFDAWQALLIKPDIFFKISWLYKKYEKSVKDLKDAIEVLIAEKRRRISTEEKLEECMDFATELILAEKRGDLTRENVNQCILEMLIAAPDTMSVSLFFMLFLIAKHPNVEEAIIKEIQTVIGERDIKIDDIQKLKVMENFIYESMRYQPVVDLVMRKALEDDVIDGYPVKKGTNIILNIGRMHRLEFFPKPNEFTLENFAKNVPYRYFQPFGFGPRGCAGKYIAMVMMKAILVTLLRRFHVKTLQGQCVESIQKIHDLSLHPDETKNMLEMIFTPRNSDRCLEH
# [3] = not given; remark: listed apart in the source
# [4] = hypogonadal men; for waking erection: Asian group; for sexual interest and activity, spontaneous erection: Caucasian group
# [5] = levator ani muscles
# [6] = prostate and seminal vesicle weights
# [7] = 300 mg/wk, six weeks; TE shoulders; ND shoulders and chest
# [8] = pharmacological doses
# [9] = in vivo
# [10] = in vivo; remark: listed apart in the source
# [11] = compared with placebo
smiles,measurement,setting,value
C[C@]12CC[C@H]3[C@@H](CCC4=C[C@@H](O)CC[C@@]43C)[C@@H]1CC[C@@H]2O [4-androstenediol],urine testosterone concentration relative to 4-androstenedione,supplementation,10 fold
C[C@]12CCC(=O)C=C1CC[C@@H]1[C@@H]2CC[C@]2(C)C(=O)CC[C@@H]12 [4-androstenedione],serum testosterone,[1],elevations in serum testosterone
C[C@]12CC[C@H]3[C@@H](CC=C4C[C@@H](O)CC[C@@]43C)[C@@H]1CC[C@@H]2O [5-androstenediol],lipid deposition or heat production,[2],did not have a significant effect
same,proportion of protein in the body composition,[2],increased the proportion of protein
C[C@]12CC[C@H]3[C@@H](CCC4=CC(=O)CC[C@@H]43)[C@@H]1CCC2=O [19-nor-androstenedione],excretion products,in vivo,excreted mainly as nor-androsterone and nor-etiocholanolone
"COc1ccc(-c2coc3cc(O)cc(O)c3c2=O)cc1 [Biochanin A, 5,7-dihydroxy-4′-methoxyisoflavone]",aromatase inhibition,aromatase,"inhibited aromatase, but to a lesser degree"
"C[C@]12CC[C@H](O)CC1=CC[C@@H]1[C@@H]2CC[C@]2(C)C(=O)CC[C@@H]12 [DHEA, dehydro-epiandrosterone]",plasma testosterone,[3]; 50 mg dose,levels similar to those observed in young women
same,delta 5-androstenediol plasma level,[3]; 50 mg or 200 mg DHEA,small increase
same,increase of plasma delta 4-androstenedione,[3]; 50 mg or 200 mg DHEA,significant and dose dependent
same,"plasma estrogens, particularly estradiol",[3]; 50 mg or 200 mg DHEA,significant and dose dependent increase
same,plasma testosterone,[3]; 200 mg dose,slightly below the levels observed in normal men
same,increase of plasma dihydrotestosterone levels,[3]; both doses,small
"C[C@@H]1CC2=CC(=O)CC[C@@H]2[C@H]2CC[C@]3(C)[C@@H](O)CC[C@H]3[C@@H]21 [MENT, 7α-methyl-19-nor-testosterone]",waking erection,[4],increased waking erection
same,"sexual interest and activity, spontaneous erection",[4],significant increases
same,anabolic potency relative to testosterone,[5],ten-times
same,androgenic potency relative to testosterone,[6],four- to five-times
"CCCCCCC(=O)O[C@H]1CC[C@H]2[C@@H]3CCC4=CC(=O)CC[C@]4(C)[C@H]3CC[C@]12C [TE, testosterone enanthate]",waking erection,[4],increased waking erection
same,"sexual interest and activity, spontaneous erection",[4],significant increases
same,body circumferences,[7],significant increases
C[C@]12CC[C@H]3[C@@H](CCC4=CC(=O)CC[C@@]43C)[C@@H]1CC[C@@H]2O [Testosterone],lipid deposition or heat production,[2],did not have a significant effect
same,proportion of protein in the body composition,[2],increased the proportion of protein
CCCCCCCCCC(=O)O[C@H]1CC[C@H]2[C@@H]3CCC4=CC(=O)CC[C@@H]4[C@H]3CC[C@]12C [nandrolone decanoate],body circumferences,[7],significant increases
same,"total weight, lean body mass, body cell mass, muscle size, and strength",[8],significant gains
"C[C@]12CC[C@H]3[C@@H](CCC4=CC(=O)CC[C@@H]43)[C@@H]1CC[C@@H]2O [nandrolone, 19-nor-testosterone]",effect on sperm,[9],azoospermia
same,energy expenditure,[2],increased energy expenditure
same,decrease in HDL-cholesterol,[10],25-27%
same,lean body mass,[11],increased significantly
